In publication PMC11050014, “Development of Novel Peptidyl Nitriles Targeting Rhodesain and Falcipain-2 for the Treatment of Sleeping Sickness and Malaria” (International Journal of Molecular Sciences, 2024):
Like-named read-outs stand apart in the source and are kept apart here.

Experiments:
[1] = tested on: Bloodstream T. brucei parasites (T. b. brucei); experiment: Antitrypanosomal activity, ATPlite cell viability assay; type: cell-based; conditions: Trypanosoma brucei
Description: The final compound concentrations in the microplates were 33.3 µM to 65 nM.
Bloodstream T. brucei parasites were incubated in the presence of various concentrations of the tested compounds and after 24 h or 48 h cell viability was determined using the ATPlite (PerkinElmer, Waltham, MA, USA) assay. Chlorhexidine served as positive control. […] Cell viability data was normalized to the untreated controls and analyzed using GraphPad Prism. Whenever possible, data were fitted by log(inhibitor) vs response nonlinear fit (solid lines) and IC50 values were calculated.

[2] = target: T1, recombinant FP-2 (falcipain-2) (Plasmodium falciparum, UniProt Q8I6U4); experiment: FP-2 inhibition assay, fluorogenic substrate Cbz-Leu-Arg-AMC; type: biochemical; conditions: 30 nM FP-2, Cbz-Leu-Arg-AMC 25 µM, pH 5.5
T1 construct: recombinant FP-2, which was expressed and purified as previously reported; made in house
T1 sequence (Q8I6U4 244-484): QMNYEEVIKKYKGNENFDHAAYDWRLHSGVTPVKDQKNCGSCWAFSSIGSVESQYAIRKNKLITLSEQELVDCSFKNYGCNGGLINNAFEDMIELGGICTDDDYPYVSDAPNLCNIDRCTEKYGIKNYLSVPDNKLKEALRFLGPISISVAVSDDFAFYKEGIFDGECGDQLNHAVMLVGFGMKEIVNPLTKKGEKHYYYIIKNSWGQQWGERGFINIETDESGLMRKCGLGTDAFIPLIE
Description: Compounds were tested for inhibition of recombinant FP-2, which was expressed and purified as previously reported. Stock solutions of the compounds, substrate, and the positive control E64 (Sigma Aldrich, St. Louis, MO, USA) were prepared at 10 mM in 100% DMSO. The compounds were incubated in 96-well white flat-bottom plates with 30 nM recombinant FP-2 for 10 min at room temperature in an assay buffer of 100 mM sodium acetate, pH 5.5, with 5 mM DTT. After incubation, the fluorogenic substrate Cbz-Leu-Arg-AMC (R&D Systems, Minneapolis, MN, USA) was added at a concentration of 25 µM in a final assay volume of 200 µL. Fluorescence was monitored with a Varioskan Flash (ThermoScientific, Waltham, MA, USA) with excitation 355 nm and emission 460 nm. The IC50 values were calculated using GraphPad Prism v. 6 (GraphPad Software Inc., San Diego, CA, USA)) based on a sigmoidal dose response curves.

recombinant rhodesain = target: T2, recombinant rhodesain (Trypanosoma brucei rhodesiense, UniProt Q95PM0); experiment: Enzyme assay against recombinant rhodesain, fluorogenic substrate Cbz-Phe-Arg-AMC; type: biochemical; conditions: for inhibition at 100 µM: read-out: Rhodesain Percentage of Inhibition at 100 μM
T2 construct: Rhodesain was recombinantly expressed as previously described; made in house
Description: All compounds 1-8a-b were tested against recombinant rhodesain [34] by using Cbz-Phe-Arg-AMC as a fluorogenic substrate (Table 1). First, a preliminary screening at a fixed inhibitor concentration of 100 μM was performed.
An equivalent volume of DMSO was used as the negative control, and E-64, an irreversible inhibitor of clan CA family C1 cysteine proteases, was used as the positive control. For compounds that inhibited the enzyme activity at least 50% at […], continuous assays were performed at seven different concentrations to determine dissociation constants.
Preliminary screening with rhodesain was performed with 100 µM inhibitor concentrations using an equivalent amount of DMSO as negative control. Rhodesain was recombinantly expressed as previously described. Product release from substrate hydrolysis (Cbz-Phe-Arg-AMC, 10 µM) was determined continuously over a period of 10 min. […] The assay buffer contained 50 mM sodium acetate, pH = 5.5, 5 mM EDTA, 200 mM NaCl, and 0.005% Brij. The enzyme buffer contained 5 mM DTT rather than Brij. Product formation was monitored continuously for 10 min at room temperature. Inhibitor solutions were prepared from stocks in DMSO. Each independent assay was performed twice in duplicate in 96-well plates in a total volume of 200 µL. Fluorescence of the product AMC of the substrate hydrolyses was measured using an Infinite 200 PRO microplate reader (Tecan, Männedorf, Switzerland) at room temperature with a 380 nm excitation filter and a 460 nm emission filter.

[3] = inhibitor 100 μM, n.i. = no inhibition
[4] = 24 h incubation, ATPlite cell viability, read-out: Antitrypanosomal IC50 (24 h)

T2 sequence (Q95PM0 entry or part of it): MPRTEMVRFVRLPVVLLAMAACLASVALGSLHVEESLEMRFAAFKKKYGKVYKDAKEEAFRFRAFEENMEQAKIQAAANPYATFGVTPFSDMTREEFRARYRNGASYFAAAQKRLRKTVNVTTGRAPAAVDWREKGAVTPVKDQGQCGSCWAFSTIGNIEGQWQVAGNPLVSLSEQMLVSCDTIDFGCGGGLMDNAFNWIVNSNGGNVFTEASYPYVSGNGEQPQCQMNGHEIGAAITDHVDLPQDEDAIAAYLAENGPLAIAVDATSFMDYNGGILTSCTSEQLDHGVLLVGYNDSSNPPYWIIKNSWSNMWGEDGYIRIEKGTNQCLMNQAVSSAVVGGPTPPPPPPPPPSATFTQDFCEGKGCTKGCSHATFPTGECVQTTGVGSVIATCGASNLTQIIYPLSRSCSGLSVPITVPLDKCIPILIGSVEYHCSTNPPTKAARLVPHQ

| Compound | IC50 [2] [µM] | melting point [°C] | inhibition at 100 µM (recombinant rhodesain) [%] | also measured |
| --- | --- | --- | --- | --- |
| N#C[C@H](CCc1ccccc1)NC(=O)Cn1ccc2ccccc21 [1a, N-((S)-1-Cyano-3-phenylpropyl)2-(1H-indol-1-yl)acetamide] | > 50 | 120 to 121 | – | IC50 ([1]; 24 h incubation, ATPlite cell viability, fitted beyond tested range (max 33.3 µM), read-out: Antitrypanosomal IC50 (24 h)): 1500 ± 2000 µM; IC50 ([1]; 48 h incubation, ATPlite cell viability, fitted beyond tested range (max 33.3 µM), read-out: Antitrypanosomal IC50 (48 h)): 280 ± 290 µM |
| N#CC1(NC(=O)CCn2ccc3cc(F)ccc32)CC1 [8b, N-(1-Cyanocyclopropyl)-3-(5-fluoro-1H-indol-1-yl)propanamide] | – | – | 9.6 | – |
| N#CC1(NC(=O)CCn2ccc3ccccc32)CC1 [5b, N-(1-Cyanocyclopropyl)-3-(1H-indol-1-yl)propanamide] | > 50 | 139 to 141 | – | inhibition at 100 µM (recombinant rhodesain; [3]): 4.4% |
| Cc1cn(CCC(=O)N[C@H](C#N)CCc2ccccc2)c2ccccc12 [3b, N-((S)-1-Cyano-3-phenylpropyl)-3-(3-methyl-1H-indol-1-yl)propanamide] | – | 130 to 132 | 7.8 | – |
| N#C[C@H](CCc1ccccc1)NC(=O)CCn1ccc2ccccc21 [1b, N-((S)-1-Cyano-3-phenylpropyl)-3-(1H-indol-1-yl)propanamide] | > 50 | 155 to 156 | – | Rhodesain Percentage of Inhibition at 100 μM (recombinant rhodesain; [3]): n.i. |
| N#C[C@H](CCc1ccccc1)NC(=O)Cn1ccc2cc(F)ccc21 [4a, N-((S)-1-Cyano-3-phenylpropyl)-2-(5-fluoro-1H-indol-1-yl)acetamide] | – | 150 to 152 | 18.7 | – |
| Cc1cn(CC(=O)NC2(C#N)CC2)c2ccccc12 [7a, N-(1-Cyanocyclopropyl)-2-(3-methyl-1H-indol-1-yl)acetamide] | > 50 | – | – | Rhodesain Percentage of Inhibition at 100 μM (recombinant rhodesain; [3]): n.i. |
| Cc1cn(CCC(=O)NC2(C#N)CC2)c2ccccc12 [7b, N-(1-Cyanocyclopropyl)-3-(3-methyl-1H-indole-1-yl)propanamide] | – | – | 9.5 | – |
| CC(C)C[C@H](NC(=O)[C@H]1O[C@@H]1C(=O)O)C(=O)NCCCCN=C(N)N [E-64, reference compound] | 0.051 | – | – | Ki (recombinant rhodesain; Cbz-Phe-Arg-AMC 10 µM, pH 5.5, progress curves 10 min, Ki = IC50/(1 + [S]/Km)): 33 ± 7 nM |
| N#CC1(NC(=O)Cn2ccc3ccccc32)CC1 [5a, N-(1-Cyanocyclopropyl)-2-(1H-indol-1-yl)acetamide] | > 50 | – | – | inhibition at 100 µM (recombinant rhodesain; [3]): 6.2% |
| Cc1cc2ccccc2n1CC(=O)N[C@H](C#N)CCc1ccccc1 [2a, N-((S)-1-Cyano-3-phenylpropyl)-2-(2-methyl-1H-indol-1-yl)acetamide] | > 50 | 131 to 133 | – | – |
| [H]/N=C(\N/C(=N/[H])NCCCCCCNC(=N)NC(=N)Nc1ccc(Cl)cc1)Nc1ccc(Cl)cc1 [Chlorhexidine, chlorhexidine, reference compound] | – | – | – | IC50 ([1]; 48 h, read-out: Antitrypanosomal IC50 (48 h)): 0.7 ± 0.2 µM; IC50 [1, 4]: 0.98 µM |
| Cc1cc2ccccc2n1CCC(=O)N[C@H](C#N)CCc1ccccc1 [2b, N-((S)-1-Cyano-3-phenylpropyl)-3-(2-methyl-1H-indol-1-yl)propanamide] | 40.4 | 144 to 145 | – | IC50 [1, 4]: 12 ± 0.7 µM; IC50 ([1]; 48 h incubation, ATPlite cell viability, read-out: Antitrypanosomal IC50 (48 h)): 12 ± 3 µM |
| Cc1cn(CC(=O)N[C@H](C#N)CCc2ccccc2)c2ccccc12 [3a, N-((S)-1-Cyano-3-phenylpropyl)-2-(3-methyl-1H-indol-1-yl)acetamide] | > 50 | 114 to 115 | – | – |
| N#CC1(NC(=O)Cn2ccc3cc(F)ccc32)CC1 [8a, N-(1-cyanocyclopropyl)-2-(5-fluoro-1H-indol-1-yl)acetamide] | – | – | 4.5 | – |
| Cc1cc2ccccc2n1CC(=O)NC1(C#N)CC1 [6a, N-(1-Cyanocyclopropyl)-2-(2-methyl-1H-indol-1-yl)acetamide] | > 50 | – | – | Rhodesain Percentage of Inhibition at 100 μM (recombinant rhodesain; [3]): n.i. |
| N#C[C@H](CCc1ccccc1)NC(=O)CCn1ccc2cc(F)ccc21 [4b, N-((S)-1-Cyano-3-phenylpropyl)-3-(5-fluoro-1H-indol-1-yl)propanamide] | – | 142 to 143 | 1.9 | – |
